system: JR251 or RBL cells; assay: Store-operated calcium entry, either JR251 or RBL cells, or both; type: cell-based
Protocol: The day prior to performing the assay, RBL-2H3 cells are plated in 50 μL of complete medium in a 384 well plate. Cells are grown at 37° C./6% CO2 overnight and grow to 50-60% confluence by the next day. On the assay day, 1.5 μM Fluo-4-AM dye (Invitrogen) in complete medium is added and incubated for 1 hour at RT. Cells are washed twice in Ca^2+-free HBSS buffer and 35 μL Ca^2+-free HBSS buffer is added to each well. 10 μL of a test compound prepared in a Ca^2+-free HBSS solution at 4.5× of the desired concentration is added to a well and incubated for 5 minutes at RT. 10 μL of thapsigargin prepared in a Ca^2+-free HBSS solution at 5.5× of the desired concentration (5.5 uM) is added to each well and incubated for an additional 25 minutes. The initial baseline fluorescence signal is measured with a FLIPR^384 (Molecular Devices) plate reader. 5 μL of 12× calcium in HBSS (12 mM) is added and changes in cellular fluorescence are measured with the FLIPR^384 plate reader. In each well, the change in the fluorescent signal as a function of time due to calcium entry into the cell is determined by calculating the difference between the fluorescent signal measured 7 seconds after calcium addition and the initial baseline fluorescence signal at time zero (t=0). This parameter is designated Upslope. The IC50 value is calculated as the concentration at which 50% of the Upslope is inhibited.

IC50, < 10 µM:
Cc1cc(F)c(-c2csc(NC(=O)c3cc4ccccc4o3)c2C(=O)O)cc1Cl [2-(benzofuran-2-carboxamido)-4-(5-chloro-2-fluoro-4-methylphenyl)thiophene-3-carboxylic acid]
O=C(Nc1scc(-c2ccc(Cl)cc2)c1C(=O)O)c1cc2nccnc2s1 [4-(4-chlorophenyl)-2-(thieno[2,3-b]pyrazine-6-carboxamido)thiophene-3-carboxylic acid]
O=C(CCc1ccccc1)Nc1scc(-c2cc3cc(Cl)ccc3o2)c1C(=O)O [4-(5-chlorobenzofuran-2-yl)-2-(3-phenylpropanamido)thiophene-3-carboxylic acid]
N#C/C(=C\c1ccccc1)C(=O)Nc1scc(-c2ccc(Cl)cc2)c1C(=O)O [(E)-4-(4-chlorophenyl)-2-(2-cyano-3-phenylacrylamido)thiophene-3-carboxylic acid]
O=C(Nc1scc(-c2ccc(Cl)c(F)c2F)c1C(=O)O)c1nc2ccccc2o1 [2-(benzo[d]oxazole-2-carboxamido)-4-(4-chloro-2,3-difluorophenyl)thiophene-3-carboxylic acid]
O=C(Nc1scc(-c2ccc(Br)c(F)c2F)c1C(=O)O)c1cc2ccccc2o1 [2-(benzofuran-2-carboxamido)-4-(4-bromo-2,3-difluorophenyl)thiophene-3-carboxylic acid]
Cc1ccc(-c2csc(NC(=O)c3nc4ccccc4s3)c2C(=O)O)cc1 [2-(benzo[d]thiazole-2-carboxamido)-4-p-tolylthiophene-3-carboxylic acid]
O=C(O)c1c(-c2ccc(Br)cc2)csc1NC(=O)C(F)Cc1ccc(F)cc1Cl (stereo not shown) [4-(4-bromophenyl)-2-(3-(2-chloro-4-fluorophenyl)-2-fluoropropanamido)thiophene-3-carboxylic acid]
O=C(Nc1scc(-c2ccc(Cl)cc2F)c1C(=O)O)c1nc2ccccc2s1 [2-(benzo[d]thiazole-2-carboxamido)-4-(4-chloro-2-fluorophenyl)thiophene-3-carboxylic acid]
Cc1ccc(-c2csc(NC(=O)c3cc(Cl)sc3Cl)c2C(=O)O)cc1 [2-(2,5-dichlorothiophene-3-carboxamido)-4-p-tolylthiophene-3-carboxylic acid]
COc1ccc(-c2csc(NC(=O)c3nc4ccccc4o3)c2C(=O)O)c(Cl)c1 [2-(benzo[d]oxazole-2-carboxamido)-4-(2-chloro-4-methoxyphenyl)thiophene-3-carboxylic acid]
Cc1ccc(-c2csc(NC(=O)c3cc(C)oc3C)c2C(=O)O)cc1 [2-(2,5-dimethylfuran-3-carboxamido)-4-p-tolylthiophene-3-carboxylic acid]
O=C(Nc1scc(-c2ccc(OC(F)(F)F)cc2)c1C(=O)O)c1nc2ccccc2o1 [2-(benzo[d]oxazole-2-carboxamido)-4-(4-(trifluoromethoxy)phenyl)thiophene-3-carboxylic acid]
O=C(Nc1scc(-c2ccc(Cl)cc2)c1C(=O)O)c1ccc2nnsc2c1 [2-(benzo[d][1,2,3]thiadiazole-6-carboxamido)-4-(4-chlorophenyl)thiophene-3-carboxylic acid]
O=C(O)c1c(-c2ccc(Cl)cc2)csc1NC(=O)C(F)Cc1ccccc1Cl (stereo not shown) [4-(4-chlorophenyl)-2-(3-(2-chlorophenyl)-2-fluoropropanamido)thiophene-3-carboxylic acid]
O=C(O)c1c(-c2ccc(Cl)cc2)csc1NC(=O)C1Cc2cc(Cl)ccc2O1 (stereo not shown) [2-(5-chloro-2,3-dihydrobenzofuran-2-carboxamido)-4-(4-chlorophenyl)thiophene-3-carboxylic acid]
Cc1ccc(-c2csc(NC(=O)c3nc4ccccc4o3)c2C(=O)O)cc1F [2-(benzo[d]oxazole-2-carboxamido)-4-(3-fluoro-4-methylphenyl)thiophene-3-carboxylic acid]
COC1CCCC(C(=O)Nc2scc(-c3ccc(Br)cc3)c2C(=O)O)C1 (stereo not shown) [4-(4-bromophenyl)-2-(3-methoxycyclohexanecarboxamido)thiophene-3-carboxylic acid]
O=C(Nc1scc(-c2ccc(Cl)cc2)c1C(=O)O)c1cc(-c2ccccc2)on1 [4-(4-chlorophenyl)-2-(5-phenylisoxazole-3-carboxamido)thiophene-3-carboxylic acid]
O=C(Nc1scc(-c2ccc(Cl)cc2)c1C(=O)O)c1cc2sccc2[nH]1 [4-(4-chlorophenyl)-2-(4H-thieno[3,2-b]pyrrole-5-carboxamido)thiophene-3-carboxylic acid]
Cc1ccc(-c2csc(NC(=O)/C=C/c3ccco3)c2C(=O)O)cc1 [(E)-2-(3-(furan-2-yl)acrylamido)-4-p-tolylthiophene-3-carboxylic acid]
Cc1ccc(-c2csc(NC(=O)c3cc4c(C)nn(C)c4s3)c2C(=O)O)cc1 [2-(1,3-dimethyl-1H-thieno[2,3-c]pyrazole-5-carboxamido)-4-p-tolylthiophene-3-carboxylic acid]
Cc1ccc(-c2csc(NC(=O)c3cc4c(Cl)cc(Cl)cc4[nH]3)c2C(=O)O)cc1 [2-(4,6-dichloro-1H-indole-2-carboxamido)-4-p-tolylthiophene-3-carboxylic acid]
O=C(Nc1scc(-c2c(F)cc(F)cc2F)c1C(=O)O)c1cc2ccccc2o1 [2-(benzofuran-2-carboxamido)-4-(2,4,6-trifluorophenyl)thiophene-3-carboxylic acid]
O=C(CC(c1ccccc1)c1ccccc1)Nc1scc(-c2ccc(Br)cc2)c1C(=O)O [4-(4-bromophenyl)-2-(3,3-diphenylpropanamido)thiophene-3-carboxylic acid]
O=C(Nc1scc(-c2ccc(Cl)cc2)c1C(=O)O)c1ccc2nccn2c1 [4-(4-chlorophenyl)-2-(imidazo[1,2-a]pyridine-6-carboxamido)thiophene-3-carboxylic acid]
O=C(O)c1c(-c2ccc(Br)cc2)csc1NC(=O)C1COc2ccccc2C1 (stereo not shown) [4-(4-bromophenyl)-2-(chroman-3-carboxamido)thiophene-3-carboxylic acid]
Cc1cccc(C)c1CCC(=O)Nc1scc(-c2ccc(Br)cc2)c1C(=O)O [4-(4-bromophenyl)-2-(3-(2,6-dimethylphenyl)propanamido)thiophene-3-carboxylic acid]
O=C(Nc1scc(-c2ccc(Br)cc2)c1C(=O)O)c1cccnc1 [4-(4-bromophenyl)-2-(nicotinamido)thiophene-3-carboxylic acid]
O=C(Nc1scc(-c2ccc(Cl)cc2)c1C(=O)O)c1cnn(-c2ccccc2)c1 [4-(4-chlorophenyl)-2-(1-phenyl-1H-pyrazole-4-carboxamido)thiophene-3-carboxylic acid]
Cc1cc(Cl)ccc1-c1csc(NC(=O)c2nc3ccccc3o2)c1C(=O)O [2-(benzo[d]oxazole-2-carboxamido)-4-(4-chloro-2-methylphenyl)thiophene-3-carboxylic acid]
O=C(O)c1c(-c2ccc(Br)cc2)csc1NC(=O)C1CCc2ccccc2C1 (stereo not shown) [4-(4-bromophenyl)-2-(1,2,3,4-tetrahydronaphthalene-2-carboxamido)thiophene-3-carboxylic acid]
Cc1cc(C(F)(F)F)ccc1-c1csc(NC(=O)c2nc3ccccc3o2)c1C(=O)O [2-(benzo[d]oxazole-2-carboxamido)-4-(2-methyl-4-(trifluoromethyl)phenyl)thiophene-3-carboxylic acid]
N#CC(Cc1ccccc1Cl)C(=O)Nc1scc(-c2ccc(Cl)cc2)c1C(=O)O (stereo not shown) [4-(4-chlorophenyl)-2-(3-(2-chlorophenyl)-2-cyanopropanamido)thiophene-3-carboxylic acid]
COc1cccc2cc(-c3csc(NC(=O)c4ccc5snnc5c4)c3C(=O)O)oc12 [2-(benzo[d][1,2,3]thiadiazole-5-carboxamido)-4-(7-methoxybenzofuran-2-yl)thiophene-3-carboxylic acid]
O=C(O)c1c(-c2ccc(Br)cc2)csc1NC(=O)N1Cc2ccccc2C1 [4-(4-bromophenyl)-2-(isoindoline-2-carboxamido)thiophene-3-carboxylic acid]
Cc1ccc(-c2csc(NC(=O)c3sccc3C)c2C(=O)O)cc1 [2-(3-methylthiophene-2-carboxamido)-4-p-tolylthiophene-3-carboxylic acid]
O=C(Nc1scc(-c2ccc(Cl)cc2)c1C(=O)O)c1nccc(-c2ccccc2)n1 [4-(4-chlorophenyl)-2-(4-phenylpyrimidine-2-carboxamido)thiophene-3-carboxylic acid]
O=C(Nc1scc(-c2ccc(Br)cc2)c1C(=O)O)c1cn2ccccc2n1 [4-(4-bromophenyl)-2-(imidazo[1,2-a]pyridine-2-carboxamido)thiophene-3-carboxylic acid]
O=C(O)c1c(-c2ccc(Br)cc2)csc1NC(=O)C1Cc2ccccc2C1 [4-(4-bromophenyl)-2-(2,3-dihydro-1H-indene-2-carboxamido)thiophene-3-carboxylic acid]
